Results from US20260365628A1, “SUBSTITUTED 3,4-DIHYDROQUINOLINONE INHIBITORS OF TSHR” (Septerna, Inc., priority 2022, published 2026).

Each compound was assayed against T1, hTSHR (Homo sapiens, UniProt P16473) (assay: hTSHR TR-FRET cAMP Assay (inhibition of M22-stimulated cAMP production)). Conditions: Expi293F Inducible cells stably expressing hTSHR; cAMP HTRF; stimulated with EC80 of anti-TSHR antibody M22; 15 min compound preincubation, 30 min at 37° C.; read-out: Activity (IC50 bins).
T1 construct: expressed in transfected cells
Assay type: cell-based
Method in brief: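 Readout was a cAMP HTRF ratio of 655/620 nm after lysis, scaled between the EC80 M22 signal (0% inhibition) and no-agonist vehicle (100%). Frozen induced Expi293F-hTSHR cells saw test compounds (0.5% DMSO) for 15 min at 37 °C before 30 min of M22 stimulation at EC80.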

T1 sequence (P16473 21-764): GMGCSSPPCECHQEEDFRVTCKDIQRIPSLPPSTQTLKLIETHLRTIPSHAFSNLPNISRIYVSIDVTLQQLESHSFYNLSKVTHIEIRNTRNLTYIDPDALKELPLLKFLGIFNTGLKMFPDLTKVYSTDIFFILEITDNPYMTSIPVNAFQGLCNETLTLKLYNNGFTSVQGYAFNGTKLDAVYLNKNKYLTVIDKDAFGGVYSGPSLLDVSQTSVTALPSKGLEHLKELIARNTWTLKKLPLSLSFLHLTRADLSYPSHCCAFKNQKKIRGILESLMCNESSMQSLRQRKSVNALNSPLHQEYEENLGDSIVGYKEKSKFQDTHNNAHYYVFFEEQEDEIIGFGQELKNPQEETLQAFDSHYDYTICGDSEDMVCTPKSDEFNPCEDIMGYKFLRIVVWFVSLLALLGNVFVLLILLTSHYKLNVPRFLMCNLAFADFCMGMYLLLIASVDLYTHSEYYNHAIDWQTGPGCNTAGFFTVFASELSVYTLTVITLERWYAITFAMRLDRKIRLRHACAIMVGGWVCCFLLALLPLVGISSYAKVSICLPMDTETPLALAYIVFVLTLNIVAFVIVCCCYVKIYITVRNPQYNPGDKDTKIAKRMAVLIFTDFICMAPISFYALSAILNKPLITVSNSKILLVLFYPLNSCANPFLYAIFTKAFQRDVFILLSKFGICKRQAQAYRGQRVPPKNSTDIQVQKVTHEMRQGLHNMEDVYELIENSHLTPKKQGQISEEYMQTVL

SMILES | IC50
C[C@H]1Oc2cc(NC(=O)NC(C)(C)C)ccc2N(Cc2nc(C(F)(F)F)cs2)C1=O [Example 168, (R)-1-(tert-butyl)-3-(2-methyl-3-oxo-4-((4-(trifluoro-methyl)thiazol-2-yl)methyl)-3,4-dihydro-2H-benzo [b][1,4]oxazin-7-yl)urea] | 100 to 1000 nM
C[C@H]1Oc2cc(NC(=O)NC(C)(C)C)ccc2N(Cc2cncc(C(F)(F)F)n2)C1=O [Example 169, (R)-1-(tert-butyl)-3-(2-methyl-3-oxo-4-((6-(trifluoro-methyl)pyrazin-2-yl)methyl)-3,4-dihydro-2H-benzo [b][1,4]oxazin-7-yl)urea] | 100 to 1000 nM
C[C@H]1Oc2cc(NC(=O)NC(C)(C)C)ccc2N(Cc2nccc(C(F)(F)F)n2)C1=O [Example 170, (R)-1-(tert-butyl)-3-(2-methyl-3-oxo-4-((4-(trifluoro-methyl)pyrimidin-2-yl)methyl)-3,4-dihydro-2H-benzo [b][1,4]oxazin-7-yl)urea] | 100 to 1000 nM
C[C@H]1Oc2cc(NC(=O)NC(C)(C)C)ccc2N(Cc2cncc(C(F)(F)F)c2)C1=O [Example 171, (R)-1-(tert-butyl)-3-(2-methyl-3-oxo-4-((5-(trifluoro-methyl)pyridin-3-yl)methyl)-3,4-dihydro-2H-benzo [b][1,4]oxazin-7-yl)urea] | 100 to 1000 nM
C[C@H]1Oc2cc(NC(=O)NC(C)(C)C)ccc2N(Cc2cccc(C(O)C(F)(F)F)n2)C1=O (stereo partly drawn) [Example 173, 1-(tert-butyl)-3-((2R)-2-methyl-3-oxo-4-((6-(2,2,2-trifluoro-1-hydroxy-ethyl)pyridin-2-yl)methyl)-3,4-dihydro-2H-benzo [b][1,4]oxazin-7-yl)urea] | 100 to 1000 nM
C[C@H]1Oc2cc(NC(=O)NC(C)(C)C)ccc2N(Cc2cc(Cl)ccc2Cl)C1=O [Example 176, (R)-1-(tert-butyl)-3-(4-(2,5-dichloro-benzyl)-2-methyl-3-oxo-3,4-dihydro-2H-benzo [b][1,4]oxazin-7-yl)urea] | < 100 nM
C[C@H]1Oc2cc(NC(=O)NC(C)(C)C)ccc2N(Cc2cc(F)ccc2F)C1=O [Example 177, (R)-1-(tert-butyl)-3-(4-(2,5-difluoro-benzyl)-2-methyl-3-oxo-3,4-dihydro-2H-benzo [b][1,4]oxazin-7-yl)urea] | < 100 nM
C[C@H]1Oc2cc(NC(=O)NC(C)(C)C)ccc2N(Cc2ccccc2Cl)C1=O [Example 178, (R)-1-(tert-butyl)-3-(4-(2-chloro-benzyl)-2-methyl-3-oxo-3,4-dihydro-2H-benzo [b][1,4]oxazin-7-yl)urea] | 100 to 1000 nM
Cc1nc2cc(NC(=O)NC(C)(C)C)ccc2n([C@@H](C)c2ccccc2)c1=O [Example 179, 3-tert-butyl-1-{3-methyl-2-oxo-1-[(1S)-1-phenylethyl]quinoxalin-6-yl}urea] | 100 to 1000 nM
Cc1nc2cc(NC(=O)NC(C)(C)C)ccc2n([C@@H](C)c2cccc(Cl)c2)c1=O [Example 180, (S)-1-(tert-butyl)-3-(1-(1-(3-chlorophenyl)ethyl)-3-methyl-2-oxo-1,2-dihydroquinoxalin-6-yl)urea] | 100 to 1000 nM
Cc1nc2cc(NC(=O)NC(C)(C)C)ccc2n([C@@H](C)c2cccc(C(F)(F)F)c2)c1=O [Example 181, (S)-1-(tert-butyl)-3-(3-methyl-2-oxo-1-(1-(3-(trifluoromethyl)phenyl)ethyl)-1,2-dihydroquinoxalin-6-yl)urea] | 100 to 1000 nM
C[C@H]1Oc2cc(NC(=O)NC(C)(C)C)ccc2N([C@@H](C)c2cc(Cl)ccc2Cl)C1=O [Example 190, 1-(tert-butyl)-3-((R)-4-((S)-1-(2,5-dichlorophenyl)ethyl)-2-methyl-3-oxo-3,4-dihydro-2H-benzo[b][1,4]oxazin-7-yl)urea] | 100 to 1000 nM
CC1(NC(=O)Nc2ccc3c(c2)ncc(=O)n3Cc2ccccc2)CCC1 [Example 191, 1-(1-benzyl-2-oxo-1,2-dihydroquinoxalin-6-yl)-3-(1-methylcyclobutyl)urea] | 100 to 1000 nM
CC1(C)CN(C(=O)Nc2ccc3c(c2)ncc(=O)n3Cc2ccccc2)C1 [Example 192, N-(1-benzyl-2-oxo-1,2-dihydroquinoxalin-6-yl)-3,3-dimethylazetidine-1-carboxamide] | > 1000 nM
CC1(NC(=O)Nc2ccc3c(c2)ncc(=O)n3Cc2ccccc2)CCCC1 [Example 193, 1-(1-benzyl-2-oxo-1,2-dihydroquinoxalin-6-yl)-3-(1-methylcyclopentyl) urea] | 100 to 1000 nM
CC1(C)CCN(C(=O)Nc2ccc3c(c2)ncc(=O)n3Cc2ccccc2)C1 [Example 194, N-(1-benzyl-2-oxo-1,2-dihydroquinoxalin-6-yl)-3,3-dimethylpyrrolidine-1-carboxamide] | > 1000 nM
CC(C)(CF)NC(=O)Nc1ccc2c(c1)ncc(=O)n2Cc1ccccc1 [Example 195, 1-(1-benzyl-2-oxo-1,2-dihydroquinoxalin-6-yl)-3-(1-fluoro-2-methylpropan-2-yl)urea] | > 1000 nM
O=C(Nc1ccc2c(c1)ncc(=O)n2Cc1ccccc1)NC1CCCC1 [Example 196, 1-(1-benzyl-2-oxo-1,2-dihydroquinoxalin-6-yl)-3-cyclopentylurea] | > 1000 nM
O=C(Nc1ccc2c(c1)ncc(=O)n2Cc1ccccc1)C1CCCC1 [Example 197, N-(1-benzyl-2-oxo-1,2 dihydroquinoxalin-6-yl)cyclopentanecar-boxamide] | > 1000 nM
CC(C)(NC(=O)Nc1ccc2c(c1)ncc(=O)n2Cc1ccccc1)C(F)(F)F [Example 198, 1-(1-benzyl-2-oxo-1,2-dihydroquinoxalin-6-yl)-3-(1,1,1-trifluoro-2-methylpropan-2-yl)urea] | 100 to 1000 nM
CC(C)(NC(=O)Nc1ccc2c(c1)ncc(=O)n2Cc1ccccc1)C(F)F [Example 199, 1-(1-benzyl-2-oxo-1,2-dihydroquinoxalin-6-yl)-3-(1,1-difluoro-2-methylpropan-2-yl)urea] | 100 to 1000 nM
C[C@@H](c1cccc(OC(F)(F)F)c1)n1c(=O)cnc2cc(NC(=O)NC3(C)CCC3)ccc21 [Example 200, (S)-1-(1-methylcyclobutyl)-3-(2-oxo-1-(1-(3-(trifluoromethoxy)phenyl)ethyl)-1,2-dihydroquinoxalin-6-yl)urea] | < 100 nM

Next, values leading:

IC50 | SMILES
< 100 nM | C[C@H]1Oc2cc(NC(=O)NC(C)(C)C)ccc2N(Cc2cccc(C(O)C(F)(F)F)c2)C1=O (stereo partly drawn) [Example 172, 1-(tert-butyl)-3-((2R)-2-methyl-3-oxo-4-(3-(2,2,2-trifluoro-1-hydroxy-ethyl)benzyl)-3,4-dihydro-2H-benzo [b][1,4]oxazin-7-yl)urea]
100 to 1000 nM | C[C@H]1Oc2cc(NC(=O)NC(C)(C)C)ccc2N(Cc2cccc([C@@H](O)C(F)(F)F)c2)C1=O [Example 174, 1-(tert-butyl)-3-((R)-2-methyl-3-oxo-4-(3-((R)-2,2,2-trifluoro-1-hydroxyethyl)benzyl)-3,4-dihydro-2H-benzo [b][1,4]oxazin-7-yl)urea]
100 to 1000 nM | C[C@H]1Oc2cc(NC(=O)NC(C)(C)C)ccc2N(Cc2cccc([C@H](O)C(F)(F)F)c2)C1=O [Example 175, 1-(tert-butyl)-3-((R)-2-methyl-3-oxo-4-(3-((S)-2,2,2-trifluoro-1-hydroxyethyl)benzyl)-3,4-dihydro-2H-benzo [b][1,4]oxazin-7-yl)urea]
100 to 1000 nM | Cc1nc2cc(NC(=O)NC(C)(C)C)ccc2n([C@@H](C)c2cccc(OC(F)(F)F)c2)c1=O [Example 182, (S)-1-(tert-butyl)-3-(3-methyl-2-oxo-1-(1-(3-(trifluoromethoxy)phenyl)ethyl)-1,2-dihydroquinoxalin-6-yl)urea]
< 100 nM | C[C@H]1Oc2cc(NC(=O)NC(C)(C)C)ccc2N([C@@H](C)c2cccc(Cl)c2)C1=O [Example 183, 1-(tert-butyl)-3-((R)-4-((S)-1-(3-chlorophenyl)ethyl)-2-methyl-3-oxo-3,4-dihydro-2H-benzo[b][1,4]oxazin-7-yl)urea]
100 to 1000 nM | C[C@H]1Oc2cc(NC(=O)NC(C)(C)C)ccc2N([C@@H](C)c2cccc(OC(F)(F)F)c2)C1=O [Example 184, 1-(tert-butyl)-3-((R)-2-methyl-3-oxo-4-((S)-1-(3-(trifluoromethoxy)phenyl)ethyl)-3,4-dihydro-2H-benzo[b][1,4]oxazin-7-yl)urea]
< 100 nM | C[C@H]1Oc2cc(NC(=O)NC(C)(C)C)ccc2N([C@@H](C)c2cccc(C(F)F)c2)C1=O [Example 185, 1-(tert-butyl)-3-((R)-4-((S)-1-(3-(difluoromethyl)phenyl)ethyl)-2-methyl-3-oxo-3,4-dihydro-2H-benzo[b][1,4]oxazin-7-yl)urea]
< 100 nM | C[C@H]1Oc2cc(NC(=O)NC(C)(C)C)ccc2N([C@@H](C)c2cccc(C(F)(F)F)n2)C1=O [Example 186, 1-(tert-butyl)-3-((R)-2-methyl-3-oxo-4-((S)-1-(6-(trifluoromethyl)pyridin-2-yl)ethyl)-3,4-dihydro-2H-benzo[b][1,4]oxazin-7-yl)urea]
100 to 1000 nM | COc1cccc([C@H](C)N2C(=O)[C@@H](C)Oc3cc(NC(=O)NC(C)(C)C)ccc32)c1 [Example 187, 1-(tert-butyl)-3-((R)-4-((S)-1-(3-methoxyphenyl)ethyl)-2-methyl-3-oxo-3,4-dihydro-2H-benzo[b][1,4]oxazin-7-yl)urea]
< 100 nM | C[C@H]1Oc2cc(NC(=O)NC(C)(C)C)ccc2N([C@@H](C)c2cc(F)ccc2F)C1=O [Example 188, 1-(tert-butyl)-3-((R)-4-((S)-1-(2,5-difluorophenyl)ethyl)-2-methyl-3-oxo-3,4-dihydro-2H-benzo[b][1,4]oxazin-7-yl)urea]
< 100 nM | C[C@H]1Oc2cc(NC(=O)NC(C)(C)C)ccc2N([C@@H](C)c2ccccc2Cl)C1=O [Example 189, 1-(tert-butyl)-3-((R)-4-((S)-1-(2-chlorophenyl)ethyl)-2-methyl-3-oxo-3,4-dihydro-2H-benzo[b][1,4]oxazin-7-yl)urea]
